Experimental data from US5770759A, “Prostaglandins of the F series” (priority 1987, dated 1998).
Values belong to the compound of their own block, whether it stands above or below them.

What was measured:
blood pressure = assay: Change in blood pressure in anesthetized rats (Experiment 1); type: in vivo, Male Wister rat; settings: for Change in Blood Pressure (%): 1 mg/kg into tail vein, anesthetized rat, average of 5 data per group; for Blood Pressure: Table 2, class symbols
Method: Male Wister rat (8-week old) was anesthetized by intraperitoneally administering urethane (1.25 g/kg). Polyethylene tube was inserted into femoral artery and connected with a pressure transducer to measure blood pressure.
The test drugs were dissolved in ethanol, diluted with Ringer's solution before use and a dose of 1 mg/kg was administered into tale vein. The maximum concentration of ethanol was 2%. As reference, ethanol-Ringer's solution without containing test drugs was used and the effect was checked in each experiment without failing. The rate of change in blood pressure (%) was determined by average of 5 data per group.

mouse = assay: Acute toxicity upon oral administration (Experiment 6); type: in vivo, Male Slc-ddY mouse; settings: mouse (5 weeks old)
From the text: Using Male Slc-ddY mouse (5 weeks old), acute toxicity upon oral administration (LD50) was examined.

pulse = system: pulse; design: species or system Male Wister rat; settings: rat, in vivo
Method: Male Wister rat (8-week old) was anesthetized by intraperitoneally administering urethane (1.25 g/kg). A tachometer was operated by R wave of electrocardiogram of exterminal derivation. The effect of the tested 15-keto-PGEs on pulse is evaluated by the value calucurated from the following formula: [formula]

Compound: 13,14-dihydro-15-keto-9β,11α-PGF2 methyl ester [Test Drug 3]
Change in Blood Pressure (%) (blood pressure): +5%

Compound: 13,14-dihydro-15-keto-16,16-dimethyl-PGF2 α ethyl ester [Test Drug 4]
Change in Blood Pressure (%) (blood pressure): +7%

Compound: 13,14-dihydro-15-keto-16-desbutyl-16-m-trifluoromethylphenoxy-PGF2 α methyl ester [Test Drug 23]
Change in Blood Pressure (%) (blood pressure): +5%

Compound: 13,14-dihydro-15-keto-16R,S-fluoro-11R-dehydroxy-11R-methyl-PGF2 α methyl ester [Test Drug 8]
Change in Blood Pressure (%) (blood pressure): +44%

Compound: 13,14-dihydro-15-keto-16R,S-fluoro-PGF2 α [Test Drug 5]
Change in Blood Pressure (%) (blood pressure): +7%

Compound: 13,14-dihydro-15-keto-16R,S-fluoro-PGF2 α methyl ester [Test Drug 6]
Change in Blood Pressure (%) (blood pressure): +18%

Compound: 13,14-dihydro-15-keto-17S-methyl-PGF2 α ethyl ester [Test Drug 13]
Change in Blood Pressure (%) (blood pressure): +18%

Compound: 13,14-dihydro-15-keto-20-ethyl-11R-dehydroxy-11R-methyl-PGF2 α methyl ester [Example 15]
Change in Blood Pressure (%) (blood pressure): +7%

Compound: 13,14-dihydro-15-keto-20-ethyl-16R,S-fluoro-11R-dehydroxy-11R-methyl-PGF2 α methyl ester [Test Drug 12]
Change in Blood Pressure (%) (blood pressure): +13%

Compound: 13,14-dihydro-15-keto-20-ethyl-16R,S-fluoro-PGF2 α [Test Drug 10]
Change in Blood Pressure (%) (blood pressure): +35%

Compound: 13,14-dihydro-15-keto-20-ethyl-16R,S-fluoro-PGF2 α methyl ester [Test Drug 11]
Change in Blood Pressure (%) (blood pressure): +8%

Compound: 13,14-dihydro-15-keto-20-ethyl-PGF1 α methyl ester [Test Drug 25]
Change in Blood Pressure (%) (blood pressure): +32%

Compound: 13,14-dihydro-15-keto-20-ethyl-PGF2 α [Test Drug 15]
Change in Blood Pressure (%) (blood pressure): +24%

Compound: 13,14-dihydro-15-keto-20-ethyl-PGF2 α ethyl ester [Test Drug 17]
Change in Blood Pressure (%) (blood pressure): +20%

Compound: 13,14-dihydro-15-keto-20-ethyl-PGF2 α isopropyl ester [Test Drug 18]
Change in Blood Pressure (%) (blood pressure): +16%
Blood Pressure (blood pressure; rat): .uparw. (increase more than 10%)
LD50 (oral) (mouse): > 2000 mg/kg

Compound: 13,14-dihydro-15-keto-20-ethyl-PGF2 α methyl ester [Test Drug 16]
Change in Blood Pressure (%) (blood pressure): +26%
Blood Pressure (blood pressure; rat): .uparw. (increase more than 10%)
LD50 (oral) (mouse): > 2000 mg/kg

Compound: 13,14-dihydro-15-keto-20-ethyl-PGF2 α n-butyl ester [Test Drug 19]
Change in Blood Pressure (%) (blood pressure): +8%

Compound: 13,14-dihydro-15-keto-20-methoxy-PGF2 α methyl ester [Example 9]
Change in Blood Pressure (%) (blood pressure): +41%

Compound: 13,14-dihydro-15-keto-20-methyl-PGF2 α methyl ester [Test Drug 14]
Change in Blood Pressure (%) (blood pressure): +10%

Compound: 13,14-dihydro-15-keto-20-n-butyl-PGF2 α methyl ester [Test Drug 22]
Change in Blood Pressure (%) (blood pressure): +14%

Compound: 13,14-dihydro-15-keto-PGF1 α ethyl ester [Test Drug 24]
Change in Blood Pressure (%) (blood pressure): +27%

Compound: 13,14-dihydro-15-keto-PGF2 α methyl ester [Test Drug 1]
Change in Blood Pressure (%) (blood pressure): +14%
Blood Pressure (blood pressure; rat): .uparw. (increase more than 10%)

Pulse (pulse): .dwnarw. → .uparw.
effect on pulse (in words) (pulse): ephemeral decrease in pulse
Compound: CCCCC[C@H](O)/C=C/[C@@H]1[C@@H](C/C=C\CCCC(=O)O)[C@@H](O)C[C@H]1O [PGF2 α, (Z)-7-[(1R,2R,3R,5S)-3,5-dihydroxy-2-{(E)-(3S)-3-hydroxy-1-octenyl}-cyclopentyl]-5-heptenoic acid, reference compound]
Blood Pressure (blood pressure; rat): .dwnarw. → .uparw.
effect on blood pressure (in words) (blood pressure; rat): ephemeral decrease in pulse as well as blood pressure

Compound: CCCCCC(=O)CC[C@@H]1[C@@H](C/C=C\CCCC(=O)OCC)[C@@H](O)C[C@H]1O [Test Drug 2, 13,14-dihydro-15-keto-PGF2 α ethyl ester]
Change in Blood Pressure (%) (blood pressure): +17%

Compound: CCCCCCCCC(=O)CC[C@@H]1[C@@H](C/C=C\CCCC(=O)OC)[C@@H](O)C[C@H]1O [Test Drug 21, 13,14-dihydro-15-keto-20-n-propyl-PGF2 α methyl ester]
Change in Blood Pressure (%) (blood pressure): +16%

Compound: CCCCCC(=O)CC[C@@H]1[C@@H](C/C=C\CCCC(=O)OC)[C@@H](O)C[C@H]1O [compound 1]
Change in Blood Pressure (%) (blood pressure): +12%
